Measurements from PubChem BioAssay AID1259407 (Chemical Carcinogenesis Research Information System (CCRIS), 2018).
Activity calls are given as the source filed them. The rule behind the calls is not given here.

Tested on: CCRIS mutagenicity, Ames/micronucleus/aberration tests
Experiment: CCRIS mutagenicity studies
Conditions: Test System: AMES SALMONELLA TYPHIMURIUM, Metabolic Activation: NONE, Method: PREINCUBATION

Measured: mutagenic call

Cn1c([N+](=O)[O-])nc2ncc(-c3ccccc3)cc21
active: Strain/Indicator: TA98(1,8-DNP6) active; positive | Strain/Indicator: TA98(NR) active; positive | Strain/Indicator: TA98 active; positive | Strain/Indicator: YG1024 active; positive
